Where a SMILES comes first, the peptide text is derived from it. [ ]: non-standard residue; d: D form. Ac6c = NC1(C(=O)O)CCCCC1; Ac5c = NC1(C(=O)O)CCCC1; Sar = CNCC(=O)O
What was measured:
Assay type in all cases: cell-based
human AT1R [1] = biological target: T1, human AT1R (Homo sapiens, UniProt P30556); test: IP1 accumulation assay (IP1 G-protein assay), human AT1R; conditions: for Emax: read-out: Span (relative to hAngII)
T1 sequence (P30556 1-359): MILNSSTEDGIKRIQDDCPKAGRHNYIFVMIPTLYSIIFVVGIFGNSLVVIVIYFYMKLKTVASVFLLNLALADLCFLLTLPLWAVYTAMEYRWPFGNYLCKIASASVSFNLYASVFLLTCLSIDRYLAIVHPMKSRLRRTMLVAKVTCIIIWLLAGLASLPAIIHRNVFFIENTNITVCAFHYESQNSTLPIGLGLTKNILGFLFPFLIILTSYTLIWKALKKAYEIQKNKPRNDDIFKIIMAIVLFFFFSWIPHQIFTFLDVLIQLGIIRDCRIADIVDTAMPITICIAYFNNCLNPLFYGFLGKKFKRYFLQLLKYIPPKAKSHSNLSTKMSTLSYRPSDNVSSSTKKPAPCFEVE
Description: (§1) A secondary measure of G protein coupling efficacy was also performed. IP3 is generated by activation of phospholipase C by Gα-q. IP3 is degraded to IP1, which can be forced to accumulate in cells by blocking degradation with lithium chloride. Thus we measured accumulation of IP1 to determine ligand efficacy for G protein activation.
(§2) IP1 accumulation generated by human and rat angiotensin 2 type 1 receptor (human AT1R and rat AT1aR, respectively) was measured with IP-One Tb kits purchased from Cisbio and used per the manufacturer's instructions. Clonal stably transfected cell lines expressing human AT1TR or rat AT1aR were used for all experiments.
(§3) For assays, 4,000-8,000 cells were seeded per well in 384-well small-volume microplates “HiBase” small-volume plate in volumes of 20 uL and allowed to grow overnight at 37° C. in 5% CO2. Cell growth media was then replaced with stimulation buffer supplied by Cisbio containing 50 mM lithium chloride. […] For agonist detection, peptides were then further diluted in stimulation buffer to add peptide to the cells to reach final concentrations ranging from 100 uM to 1 pM. Following addition of peptides, cells were incubated at 37° C. in 5% CO2 for 30 minutes and then lysed with 4 uL of pre-mixed HTRF IP-One reagents diluted per manufacturer's instructions (Cisbio). Microplates were incubated for 60-90 minutes at room temperature and then time-resolved fluorescence intensities were measured using a PHERAstar Plus microplate reader from BMG Labtech. IP1 accumulation was measured as change in ratio of time-resolved fluorescent intensities measured at 665 nm and 620 nm.

rat AT1aR [2] = biological target: T2, rat AT1aR (Rattus norvegicus, UniProt P25095); test: IP1 accumulation assay (IP1 G-protein assay), rat AT1aR; conditions: for Emax: read-out: Span (relative to hAngII)
T2 sequence (P25095 1-359): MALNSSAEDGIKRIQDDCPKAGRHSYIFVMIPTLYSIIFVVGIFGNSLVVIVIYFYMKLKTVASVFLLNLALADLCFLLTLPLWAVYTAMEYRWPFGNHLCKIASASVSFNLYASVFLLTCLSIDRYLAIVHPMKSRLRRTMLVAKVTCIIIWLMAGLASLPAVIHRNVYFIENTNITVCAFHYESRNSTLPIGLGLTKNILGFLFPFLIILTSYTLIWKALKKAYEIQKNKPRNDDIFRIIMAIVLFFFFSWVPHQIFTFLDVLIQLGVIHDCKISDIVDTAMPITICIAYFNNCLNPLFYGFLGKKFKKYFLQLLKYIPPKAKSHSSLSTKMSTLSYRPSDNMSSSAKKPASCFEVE
Description: as §1, §2, §3

human AT1R [3] = biological target: T1, human AT1R; test: beta-arrestin2 recruitment assay (PathHunter), human AT1R; conditions: for Emax: 1 h, read-out: Span (relative to hAngII)
Description: (§4) The proximal event in β-arrestin function mediated by GPCRs is recruitment to receptors following ligand binding and receptor phosphorylation by GRK's. Thus, the measure of β-arrestin recruitment was used to determine ligand efficacy for β-arrestin function.
(§5) B-arrestin-2 recruitment to the human and rat angiotensin 2 type 1 receptor (human AT1R and rat AT1aR, respectively) was measured with the PathHunter™ μl-arrestin assay (DiscoveRx Corporation, Fremont Calif.). Cells, plasmid(s), and detection reagent(s) were purchased from DiscoveRx, and assays were performed per manufacturer's instructions. Human AT1R and rat AT1aR were cloned into the pCMV-ProLink vector, verified by sequencing, and transfected into PathHunter β-arrestin HEK293 cells. Stably transfected clonal cell lines were selected with Hygromycin and G418. These clonal cell lines were used for all experiments.
(§6) For assays, 4,000-8,000 cells were seeded per well in 384-well microplates “HiBase” small-volume plate in volumes of 20 uL and grown overnight in the incubator (37° C., 5% CO2, saturated humidity). Peptides were dissolved in DMSO to a concentration of 10 mM. Peptides were then further diluted in assay buffer (Hank's balanced salt solution with 20 mM HEPES) to add peptide to the cells to reach final concentrations ranging from 100 μM to 1 pM. Cells were then incubated for 60 minutes at 37° C. in 5% CO2, followed by addition of 2 μL of PathHunter Detection Reagent to each well. The microplates were then incubated at room temperature for 60 minutes, and then luminescence was measured using a PHERAstar Plus microplate reader from BMG Labtech. B-arrestin-2 recruitment to receptors was measured as relative luminescence intensity expressed in arbitrary units.

rat AT1aR [4] = biological target: T2, rat AT1aR; test: beta-arrestin2 recruitment assay (PathHunter), rat AT1aR; conditions: for Emax: 1 h, read-out: Span (relative to hAngII)
Description: as §4, §5, §6

| SMILES | EC50 (human AT1R [1]; read-out: EC50) [nM] | Emax (human AT1R [1]) [%] | EC50 (human AT1R [1]; read-out: pEC50 (converted)) [nM] | EC50 (rat AT1aR [2]; read-out: EC50) [nM] | Emax (rat AT1aR [2]) [%] | EC50 (rat AT1aR [2]; read-out: pEC50 (converted)) [nM] | Emax (human AT1R [3]) [%] | EC50 (human AT1R [3]; read-out: EC50) [nM] | EC50 (human AT1R [3]; read-out: pEC50 (converted)) [nM] | Emax (rat AT1aR [4]) [%] | EC50 (rat AT1aR [4]; read-out: EC50) [nM] | EC50 (rat AT1aR [4]; read-out: pEC50 (converted)) [nM] |
| --- | --- | --- | --- | --- | --- | --- | --- | --- | --- | --- | --- | --- |
| CNCC(=O)N[C@@H](CCCNC(=N)N)C(=O)N[C@H](C(=O)N[C@@H](Cc1ccc(O)cc1)C(=O)NC1(C(=O)N[C@@H](Cc2c[nH]cn2)C(=O)N2CCC[C@H]2C(=O)N[C@@H](Cc2c[nH]c3ccccc23)C(=O)O)CCCCC1)C(C)C [SEQ ID NO: 54, Sar-Arg-Val-Tyr-cyHex-His-Pro-Trp] (H-[Sar]RVY[Ac6c]HPW-OH) | > 1.3 | < 103 | > 0.631 | > 0.6 | < 104 | > 0.631 | < 101 | > 3.2 | > 3.16 | < 105 | > 3.2 | > 3.16 |
| CNCC(=O)N[C@@H](CCCNC(=N)N)C(=O)N[C@H](C(=O)N[C@@H](Cc1ccc(O)cc1)C(=O)NC1(C(=O)N[C@@H](Cc2c[nH]cn2)C(=O)N2CCC[C@H]2C(=O)N[C@@H](CC(C)C)C(=O)O)CCCC1)C(C)C [SEQ ID NO: 19, Sar-Arg-Val-Tyr-cyPen-His-Pro-Leu] (H-[Sar]RVY[Ac5c]HPL-OH) | > 1.3 | < 103 | > 0.631 | > 0.6 |  | > 0.631 | < 101 | > 3.2 | > 3.16 | < 105 | > 3.2 | > 3.16 |
| CNCC(=O)N[C@@H](CCCNC(=N)N)C(=O)N[C@H](C(=O)N[C@@H](Cc1ccc(O)cc1)C(=O)N1CCC[C@H]1C(=O)N[C@@H](Cc1c[nH]cn1)C(=O)N1CCC[C@H]1C(=O)N[C@@H](CC(C)C)C(=O)O)C(C)C [SEQ ID NO: 5, Sar-Arg-Val-Tyr-Pro-His-Pro-Leu] (H-[Sar]RVYPHPL-OH; N-terminus and C-terminus assumed) |  | < 103 |  |  | < 104 |  | < 101 |  |  | < 105 |  |  |
| CNCC(=O)N[C@@H](CCCNC(=N)N)C(=O)N[C@H](C(=O)N[C@@H](Cc1ccc(O)cc1)C(=O)NC1(C(=O)N[C@@H](Cc2c[nH]cn2)C(=O)N2CCC[C@H]2C(=O)N2CCC[C@H]2C(=O)O)CCCCC1)C(C)C [SEQ ID NO: 39, Sar-Arg-Val-Tyr-cyHex-His-Pro-Pro] (H-[Sar]RVY[Ac6c]HPP-OH) | > 1.3 | < 103 | > 0.631 | > 0.6 | < 104 | > 0.631 | < 101 | > 3.2 | > 3.16 | < 105 | > 3.2 | > 3.16 |
| CNCC(=O)N[C@@H](CCCNC(=N)N)C(=O)N[C@H](C(=O)N[C@@H](Cc1ccc(O)cc1)C(=O)N1CCC[C@H]1C(=O)N[C@@H](Cc1c[nH]cn1)C(=O)N1CCC[C@H]1C(=O)N[C@H](C)C(=O)O)C(C)C [SEQ ID NO: 60, Sar-Arg-Val-Tyr-Pro-His-Pro-D-Ala] (H-[Sar]RVYPHP[dA]-OH) | > 1.3 | < 103 | > 0.631 | > 0.6 | < 104 | > 0.631 | < 101 | > 3.2 | > 3.16 | < 105 | > 3.2 | > 3.16 |

Reference: patent US8946142B2, “Beta-arrestin effectors and compositions and methods of use thereof” (Trevena, Inc., priority 2012, dated 2015)
